{
  "source": "patent US20180360972A1",
  "about": "“THERAPEUTIC COMPOUNDS” (REGENTS OF THE UNIVERSITY OF MINNESOTA, priority 2017, published 2018)",
  "key": {"[1]": {"tested_on": "male MC3RKO mice", "experiment": "ICV administration, TSE metabolic cages, male MC3RKO mice", "type": "in vivo", "experimental": "(§1) All experiments were performed in accordance with the Institutional Animal Care and Use Committee (IACUC) at the University of Minnesota. Female and male littermates with mixed background from C57BL/6J and 129/Sv inbred strains were 8 weeks old at the time of surgeries. Mice were individually housed after surgeries and for the remainder of the experiment. Mice were maintained on a 12 hr light/dark cycle (Lights off was at 11:59 AM) in a temperature controlled room (23-25° C.). In the nocturnal feeding paradigm, mice had free access to normal chow (Harlan Teklad 2018 Diet: 18.6% crude protein, 6.2% crude fat, 3.5% crude fiber, with energy density of 3.1 kcal/g). […] Mice had free access to tap water throughout all the experiments. The cannula placement validation studies and conventional cage studies were performed in standard mouse polycarbonate conventional cages provided by University of Minnesota's Research Animal Resources (RAR). Weekly cage changes were conducted by lab research staff.\n(§2) Mice were anesthetize with a mixture of ketamine (100 mg/kg) and xylazine (5 mg/kg) and were positioned in a stereotaxic apparatus (David Kopf Instruments). A 26-gauge cannula (Cat# 81C315GS4SPC; PlasticsOne, Roanoke, Va.) was inserted in the lateral cerebral ventricle at the coordinates 1.0 mm lateral and 0.46 mm posterior to bregma and 2.3 mm ventral to the skull (Franklin, K. B. J. & Paxinos, G. The Mouse Brain in Stereotaxic Coordinates. (Academic Press, 1997)).\n(§3) As stated above, conventional cage experiments were performed in standard mouse polycarbonate conventional cages. […] All experiments followed a cross-over paradigm in which the mouse received saline and compound on different days with a washout period in between each treatment. Statistical analysis was performed using SPSS V23 software (IBM) using a multivariate general linear model followed by a Bonferroni's post hoc test. Results are presented as Mean±SEM. Statistically significant was considered p<0.05.\nIn order to more clearly understand the effects of the biased agonism at the MC4R, the effects of administration of CJL-5-58 was explored in MC3R knockout (KO) mice and MC4RKO mice. […] Adverse reactions included two mice dying after the 5 nmol dose. […] The large error in activity may serve as an indication of toxicity. It is currently difficult to decipher whether the adverse reactions observed are due to paradigm effects, genotype difference, or compound toxicity."}, "[2]": {"target": "mMC4R-NanoLuc and mMC4R-HaloTag homodimer (Mus musculus, UniProt P56450)", "experiment": "NanoBRET ligand-dependent modulation of BRET signal", "conditions": "ligand at 10 μM"}, "[3]": {"target": "T1, hMC4R (Homo sapiens, UniProt P32245)", "T1 construct": "Flag; expressed in transfected cells", "experiment": "AlphaScreen cAMP functional bioassay, hMC4R", "type": "cell-based", "conditions": "HEK293 cells stably expressing hMC4R", "experimental": "Upon agonist stimulation, melanocortin receptors are known to signal through a Gαs-protein mediated signaling pathway that results in intracellular cAMP accumulation.\nStable populations were selected for using G418 selection (0.7-1.0 mg/mL) and used in bioassays unless indicated otherwise. In vitro experimental ligands were dissolved to a 10^−2 M stock in DMSO and stored at −20° C. Subsequent dilutions were performed in each assay's specific buffer to achieve the final concentration in the well. The ligands were assayed as TFA salts.\nAlphaScreen cAMP Functional Bioassay\nThe AlphaScreen® assay was performed as described by manufacturer.\nCells were removed from plates using Gibco® Versene solution and pelleted by centrifugation (Sorvall Super T21 high speed centrifuge, swinging bucket rotor) at 800 rpm for five minutes. […] A 10 μL aliquot of cell suspension was counted manually using a hemocytometer after addition of Trypan blue dye (BioRad). Cells were again pelleted by centrifugation, and DPBS was gently aspirated. The pelleted cells were then resuspended in a solution of freshly made stimulation buffer (Hank's Balanced Salt Solution [HBSS 10× [−] sodium bicarbonate] and [−] phenol red, Gibco®], 0.5 mM isobutylmethylxanthine [IBMX], 5 mM HEPES buffer solution [1M, Gibco®], 0.1% bovine serum albumin [BSA] in Milli-Q water, pH=7.4) and anti-cAMP acceptor beads (1.0 unit per well, AlphaScreen®). […] The cells were then stimulated with ligand diluted in stimulation buffer to achieve their final concentrations in the well ranging from 10^−13 to 10^−4 M. The stimulated plates were incubated in a dark laboratory drawer at room temperature for two hours.\nMeanwhile, a biotinylated cAMP/streptavidin donor bead working solution was made by adding biotinylated cAMP (1 Unit/well, AlphaScreen®) and streptavidin donor beads (1 Unit/well, AlphaScreen®) to a lysis buffer (10% Tween-20, 5 mM HEPES buffer solution [1M, Gibco®], 0.1% bovine serum albumin [BSA] in Milli-Q water, pH=7.4). After the two hour stimulation, the biotinylated cAMP/Streptavidin donor bead working solution was added to each well under green light and mixed well by pipetting up and down. The cells were incubated for another two hours at room temperature in a dark drawer at room temperature. The plate was then read on an EnSpire™ Alpha plate reader using a pre-normalized assay protocol set by the manufacturer. Assays were performed with duplicate data points on each plate and repeated in at least three independent experiments.\nDose response curves were analyzed using the PRISM program (v4.0; GraphPad Inc.)."}, "[4]": {"tested_on": "male MC4RKO mice", "experiment": "ICV administration, conventional cages, male MC4RKO mice", "type": "in vivo", "experimental": "as §1, §2, §3\nIn male MC4RKO mice, CJL-5-58 was administered at 5 nmols in both a nocturnal paradigm and a fasting-refeeding paradigm in standard conventional cages (FIG. 15). The dose was well handled in the nocturnal paradigm, but minimal effect was observed."}, "[5]": {"conditions": "nocturnal paradigm, 1 nmol dose"}},
  "note": "“Also recorded” adds a separate entry of the source.",
  "data": [
    {"smiles": "CC(=O)N[C@@H](Cc1cnc[nH]1)C(=O)N[C@H](Cc1ccccc1)C(=O)N[C@@H](CCCNC(=N)N)C(=O)N[C@@H](Cc1c[nH]c2ccccc12)C(=O)NCCCOCCOCCOCCCNC(=O)COCC(=O)N[C@@H](Cc1cnc[nH]1)C(=O)N[C@H](Cc1ccc2ccccc2c1)C(=O)N[C@@H](CCCNC(=N)N)C(=O)N[C@@H](Cc1c[nH]c2ccccc12)C(N)=O", "note": "[CJL-5-58, Ac-His-DPhe-Arg-Trp-(PEDG20)-His-DNal(2′)-Arg-Trp-NH2]", "values": [
      {"measurement": "RER vs saline", "setting": "[1]; fasting-refeeding, 0.5 nmol", "result": "significant increase in RER at time point 24 hours"},
      {"measurement": "other parameters vs saline", "setting": "[1]; fasting-refeeding, 0.5 nmols", "result": "No other parameters were significantly affected"},
      {"measurement": "RER vs saline", "setting": "[1]; fasting-refeeding, 1 nmol", "result": "significantly reduced at 2 and 3 hours"},
      {"measurement": "energy expenditure vs saline", "setting": "[1]; fasting-refeeding, 1 nmol", "result": "Significant reductions in energy expenditure were observed in the fasting paradigm at time points 1 and 2 hours"},
      {"measurement": "food intake vs saline", "setting": "[1]; fasting-refeeding, 1.0 nmol", "result": "Significant reduction in food intake was observed at 2 and 4 hour time points"},
      {"measurement": "adverse reactions / toxicity", "setting": "[1]; fasting-refeeding, 1.0 or 0.5 nmols", "result": "some minor signs of adverse reactions; also recorded: Some toxicity was observed"},
      {"measurement": "adverse reactions", "setting": "[1]; [5]", "result": "No adverse reactions were observed"},
      {"measurement": "effects on measured parameters vs saline", "setting": "[1]; [5]", "result": "no significant effects were observed"},
      {"measurement": "RER vs saline", "setting": "[1]; nocturnal paradigm, 2.5 nmol", "result": "significant increased RER was observed 18, 19, and 24 hours"},
      {"measurement": "energy expenditure vs saline", "setting": "[1]; nocturnal paradigm, 2.5 nmol", "result": "significant reduced 1-8 and 13 hours post-treatment"},
      {"measurement": "energy expenditure vs saline", "setting": "[1]; nocturnal paradigm, 5 nmol", "result": "significantly reduced at time points 1-3 hrs"},
      {"measurement": "food intake vs saline", "setting": "[1]; nocturnal paradigm, 5 nmol", "result": "decreased at time points 2-12 hours"},
      {"measurement": "number of mice dying", "setting": "[1]; nocturnal paradigm, 5 nmol dose", "result": "two"},
      {"measurement": "activity vs saline", "setting": "[1]; nocturnal paradigm, 5 nmols", "result": "trended towards being lowered (p=0.069)"},
      {"measurement": "RER vs saline", "setting": "[1]; nocturnal paradigm, 5 nmols (dose not restated for CJL-5-58)", "result": "significantly decreased at time points 1-5, 8 and 12 hours"},
      {"measurement": "adverse reactions / toxicity", "setting": "[1]; nocturnal paradigm, 2.5 to 5 nmols", "result": "adverse reactions were also observed at the 2.5 and 5 nmol concentrations; also recorded: Some toxicity was observed"},
      {"measurement": "reduction in BRET signal compared to basal signal", "setting": "[2]", "result": "~8", "unit": "%"},
      {"measurement": "cAMP agonist potency (in words)", "setting": "[3]", "result": "single digit nanomolar agonists"},
      {"measurement": "toxicity", "setting": "[4]; ICV 2.5 to 5 nmols, conventional cages", "result": "Some toxicity was observed"},
      {"measurement": "adverse reactions", "setting": "[4]; fasting-refeeding, 5 nmols", "result": "some signs of adverse reactions"},
      {"measurement": "body weight vs saline", "setting": "[4]; fasting-refeeding, 5 nmols", "result": "no effect on mouse body weight"},
      {"measurement": "food intake vs saline", "setting": "[4]; fasting-refeeding, 5 nmols", "result": "decreased food intake at 2, 4, 6, 8 and 24 hours after compound administration"},
      {"measurement": "body weight vs saline", "setting": "[4]; nocturnal paradigm, 5 nmols", "result": "significant increase in body weight 6 hours after compound administration"},
      {"measurement": "food intake vs saline", "setting": "[4]; nocturnal paradigm, 5 nmols", "result": "immediate reduction in food intake 2 hours after compound administration"},
      {"measurement": "tolerability", "setting": "[4]; nocturnal paradigm, 5 nmols", "result": "well handled; also recorded: looked healthy"}
    ]}
  ]
}
